Assay results from paper PMC7960626, “Phase I study assessing the mass balance, pharmacokinetics, and excretion of [^14C]-pevonedistat, a NEDD8-activating enzyme inhibitor in patients with advanced solid tumors” (Investigational New Drugs, 2020).

What was measured:
[1] = Plasma PK after a single 1-h IV infusion of [^14C]-pevonedistat 25 mg/m^2 (part A); format: in vivo, human
Excerpt: This was a two-part (A and B), open-label, multicenter, mass balance, distribution, metabolism, excretion (DME) study in adult patients with advanced solid tumors. […] Patients were required to stay at the part A study site for approximately 8 days or until the discharge criteria were met, with a maximum estimated confinement period of 9–14 days. Upon completion of part A, patients had the option to participate in part B at Medical Center Hungarian Defense Forces, Budapest, Hungary. […] Treatment was administered for 12 cycles or until discontinuation criteria were met.
Complete urinary and fecal output were collected for analysis of PK (urine) and total radioactivity (urine and feces) throughout the confinement period until discharge criteria were met. Bioanalytical assay methods are shown in the Supplementary Methods. […] In part B, disease assessments were conducted using radiological evaluations (computed tomography [CT] scan or magnetic resonance imaging [MRI], as clinically indicated).
Non-compartmental analysis using Phoenix™ WinNonlin® version 8.0 (Pharsight Corp., Mountain View, California, USA) was used for estimation of PK parameters for pevonedistat in whole blood, plasma, and urine and for total radioactivity in whole blood, plasma, urine, and feces. The following single-dose PK parameters were derived: maximum plasma concentration (Cmax), area under the concentration–time curve from time 0 to infinity (AUC∞), AUC from time 0 to the last quantifiable concentration (AUC0 − last), terminal disposition phase half-life (t1/2), renal clearance (CLR), clearance (CL), and volume of distribution at steady state (Vss).
PK data were summarized using descriptive statistics, and the PK and mass balance parameters described in Supplementary Table S1 were calculated by non-compartmental analysis for each individual patient. Safety was assessed in all patients who received at least one dose of pevonedistat, and TEAEs were coded according to the Medical Dictionary for Regulatory Activities (MedDRA), version 20.0. Analysis of efficacy in part B was descriptive; disease response was assessed in all patients who received at least one dose of pevonedistat, had measurable disease (per entry criteria for part B), and had at least one post-baseline disease assessment. Response assessment was done by the investigator using Response Evaluation Criteria in Solid Tumors (RECIST) version 1.1. SAS version 9.4 was used for all statistical analyses. […]
160 All samples were analyzed applying the methods described below: […]

[2] = cited from earlier work
[3] = human, plasma, single 1-h IV infusion 25 mg/m^2, geometric mean (CV), N = 7

For `NS(=O)(=O)OC[C@@H]1C[C@@H](n2ccc3c(N[C@H]4CCc5ccccc54)ncnc32)C[C@@H]1O` [Pevonedistat], the CL renal ([1]; human, plasma, iv, 25 mg/m^2) was 13.3 mL/min, the AUC(0-inf) [1, 3] was 1460 ng·h/mL and the AUC(0-t) [1, 3] was 1410 ng·h/mL. It also gave a Cmax [1, 3] of 218 ng/mL, a clearance [1, 3] of 537 mL/min and a Vd ([1]; human, plasma, single 1-h IV infusion 25 mg/m^2, geometric mean (CV), N = 7, read-out: Vss) of 296 L. The half-life ([1]; human, plasma, single 1-h IV infusion 25 mg/m^2, mean (SD), N = 7) was 8.4 h, the “Exposure ratio (AUC∞) of pevonedistat vs. total drug-related material” value ([1]; plasma, single 1-h IV infusion 25 mg/m^2, mean) was 0.41 and the “CLR as share of pevonedistat total plasma clearance” value ([1]; single dose 25 mg/m^2) was “approximately 2.5%”. The “systemic exposure of unchanged pevonedistat as share of drug-related material” value ([1]; single dose 25 mg/m^2, part A) was 41%, the PK linearity ([2]; dose range 25–278 mg/m^2) was “linear and dose-proportional” and the “elimination half-life in plasma” value ([2]; patients with metastatic melanoma) was “approximately 10 hours”. For the same compound, the “mean terminal elimination half-life” value ([2]; plasma, estimated across doses and schedules, 1-h IV infusion) was 5 to 8 h, the “typical CL” value ([2]; population PK analysis in more than 300 patients) was 31.5 L/h and the “effect of mild or moderate renal impairment (creatinine clearance 30–89 mL/min) on exposure” value ([2]; population PK analysis) was “does not have a clinically meaningful impact on pevonedistat exposures”.
